Data set [1] has as its system U937 cells. The experiment in a line: LDH assay (percent cytotoxicity). The class given is cell-based, human. Conditions: for cytotoxicity decrease: 10 μM, cytotoxicity induced by SPK; for effect on SPK-induced cytotoxicity at higher concentration: as concentrations increased (100 μM); for effect on cytotoxic effect of SPK (LDH): combined with SPK. As to the method:
(§1) The cells used in this example originated from the cell line U937 cells and were purchased from ATCC.
10 μls of chemicals provided by ATCC were added into a 96-well plate with the treatment plan of control, control, control, SPK 10 μM, A1 10 μM, A1 100 μM, A2 10 μM, A2 100 μM, SPK+A1 10 μM, SPK+A1 100 μM, SPK+A2 10 μM, and SPK+A2 100 μM. After incubation for 48 hours, 30 μls of media from each well were removed and added into another 96 well plate labeled as released LDH. 30 microliters of LDH substrate mix were added to the released LDH plate to measure the released LDH by the cells from the treatments. This plate was left at room temperature and away from direct light for 30 minutes. After 30 minutes, 30 μls of LDH stop solution was added to each well to terminate the assay and prevent further color changes. The plate was placed in a microplate reader and optical density (OD) was determined for each sample at 490 nm. Another reading at 655 nm was performed to determine if there was any background interference with the reading. Then, 10 μls of LDH lysis buffer were added to the original plate containing the cells to lyse all the cells and to measure a total or maximum LDH for each sample. Another empty 96 well plate was then labeled total LDH. 30 μls of the cell lysate and media were transferred from the original plate containing the lysed cells into the empty 96 well plate labeled as total LDH. 30 μls of LDH substrate mix were added to each sample to measure the total LDH. The plate was left at room temperature for 30 minutes away from direct light. After the 30 minutes, 30 μls of LDH stop solution were added to each well to terminate the experiment. The OD of the total LDH plate was measured following the same measurement steps for the released LDH. The data collected from the 490 nm wavelength was subtracted by the data collected from the 655 nm wavelength to find the corrected OD for each sample's released and total LDH. The percent cytotoxicity was later calculated by the equation: (Sample OD released LDH−control OD released LDH)/(Sample OD total LDH−control OD released LDH)*100 and T-tests were applied to each group to measure significance for percent cytotoxicity.

The test system of data set [2] is colo 320 cells.
Data set [3] has as its system colo 320 cells. It counts as cell-based, human.
The test system of data set [4] is U937 cells. The experiment in a line: caspase 9 assay. The class given is cell-based, human. Conditions: with SPK. As for the experimental part: as §1
The cells were treated in a 6-well plate with the treatment plan of control, A1 10 μM, A2 10 μM, SPK10 μM, A1+SPK10 μM, and A2+SPK10 μM for 24 hours and collected in a 1.5 ml tube. Then, Colo cells were lysed by freezing and thawing 4 times. Then, 50 μl of caspase assay buffer will be added to every well of an empty 96-well plate. Also, 50 μl of lysis buffer will be added to the blank wells and 45 μl added to the treatment and control wells. 5 μl of lysed cells will be added to each treatment well with 5 μl of pNA Substrate Solution indeed to every well. The plate will then be taken for a reading at zero time point using a microplate reader at 405 nm. Afterwards, the plate will be covered and incubated at 37 degrees Celsius. […] The data from the Caspase Assay will be analyzed by calculating the change in optical density per minute (ΔOD). The ΔOD is obtained through subtracting the sample's start OD from the sample's final OD to determine the overall change in absorbance. The ΔOD/minutes is calculated by taking the ΔOD and dividing by the overall time in minutes. The ΔOD per minute of each sample is compared to the control by a percent change to determine the activity of caspase and apoptosis. The OD of the blank samples are subtracted from the OD of the treated sample to normalize the data and ensure minimal interference.

For the next data set, the system named is monocyte. Conditions: literature; cited from earlier work.
Data set [5] has as its system U937 cells. It counts as cell-based, human.

With `C[C@@H]1CC[C@H]2[C@@H](C)C(=O)O[C@@H]3O[C@@]4(C)CC[C@@H]1[C@]32OO4` [A1, Artemisinin], in the data set on U937 cells [1], the cytotoxicity decrease result is “around 2.4%”, the “effect on SPK-induced cytotoxicity at higher concentration” value is recorded as “the effectiveness decreased” and the “effect on cytotoxic effect of SPK (LDH)” value is “reversed the cytotoxic effect of SPK from a positive value to a negative value”. For the same compound, the “mitigation of SPK induced cytotoxicity” value with colo 320 cells [2] was “changed the cytotoxicity to a negative value”. The “mitigation of SPK induced caspase apoptosis” value with colo 320 cells [3] is listed as “remediate the increase in caspase apoptosis to a negative level”. In addition, in the data set with U937 cells [4], the “decrease of caspase activity that was increased by SPK” value is recorded as “around 68%” and the “effect on SPK caused apoptosis (caspase)” value is given as “decrease SPK caused apoptosis significantly”. The monocyte cell adhesion result in the data set with monocyte is “inhibit monocyte cell adhesion”. For the same compound, in the data set on U937 cells [5], the “decrease in adhesion molecule expression” value is “around 70%”; the “decrease of cell adhesion” value was “about 73%”; the “effect on adhesion molecule expression, in words” value is “significantly decreased the adhesion molecule expression”.

Regarding `C[C@H]1[C@H](OC(=O)CCC(=O)O)O[C@@H]2O[C@@]3(C)CC[C@H]4[C@H](C)CC[C@@H]1[C@@]24OO3` [A2, Artesunate], in the data set on U937 cells [1], the cytotoxicity decrease result is listed as “around 0.8%”, the “effect on SPK-induced cytotoxicity at higher concentration” value is given as “the effectiveness decreased” and the “effect on cytotoxic effect of SPK (LDH)” value is on record as “reversed the cytotoxic effect of SPK from a positive value to a negative value”. Moreover, the “mitigation of SPK induced cytotoxicity” value in the data set on colo 320 cells [2] was “changed the cytotoxicity to a negative value”. In addition, the “mitigation of SPK induced caspase apoptosis” value in the data set on colo 320 cells [3] is given as “remediate the increase in caspase apoptosis to a negative level”. Besides, in the data set on U937 cells [4], the “decrease of caspase activity that was increased by SPK” value is listed as around 70% and the “effect on SPK caused apoptosis (caspase)” value is “decrease SPK caused apoptosis significantly”. In the data set with monocyte, the monocyte cell adhesion entry is listed as “inhibit monocyte cell adhesion”. Besides, in the data set on U937 cells [5], the “decrease in adhesion molecule expression” value is on record as “around 68%”; the “decrease of cell adhesion” value is “around 70%”; the “effect on adhesion molecule expression, in words” value is given as “significantly decreased the adhesion molecule expression”.
